Data reported in US20250222066A1, “COMPOSITIONS AND METHODS OF TREATING, PREVENTING OR INHIBITING A FACULTATIVE ANAEROBE INFECTION” (UNIVERSITY OF UTAH RESEARCH FOUNDATION, priority 2022, published 2025).
Entries after “also recorded” stand apart in the source; their conditions may differ. Like-named read-outs stand apart in the source and are kept apart here.

Tests used:
S. aureus biofilm = experiment: Live/dead imaging of metronidazole-treated biofilm; format: cell-based; conditions: 0.5 mg/ml metronidazole, 24 h
From the text: FIGS. 9A-B show biofilm histochemical staining. […] Staining of pimonidazole adducts in pimonidazole-treated S. aureus biofilms is localized in the core; the deepest location (darker brown region indicated by arrow) adjacent to the collagen substrate. Regions where oxygen tension is insufficiently low for pimonidazole adduct formation is shown (arrow head; lighter brown region). […] Viable bacteria (green) resided on the biofilm surface, where oxygen and nutrients were readily available.
Next, a time-lapse confocal imaging paired with live-dead staining was used to observe the location of metronidazole-induced cell death.

E. coli = experiment: Minimum inhibitory concentration (MIC) assay, planktonic bacteria; format: cell-based, Escherichia coli; conditions: Escherichia coli, for 1:1 combinations MIC is the sum of both compounds
Procedure: (§1) For comparison to these biofilm tests with adjunctive metronidazole, the MIC was determined for each organism and each compound tested.

A. baumannii = experiment: as above; format: cell-based; conditions: Acinetobacter baumannii; aerobic; for 1:1 combinations MIC is the sum of both compounds
Procedure: as §1

P. aeruginosa = experiment: as above; format: cell-based; conditions: Pseudomonas aeruginosa, for 1:1 combinations MIC is the sum of both compounds
Procedure: as §1

MRSA USA300 = experiment: as above; format: cell-based; conditions: Staphylococcus aureus, for 1:1 combinations MIC is the sum of both compounds
Procedure: as §1

S. epidermidis = experiment: as above; format: cell-based, Staphylococcus epidermidis; conditions: Staphylococcus epidermidis, for 1:1 combinations MIC is the sum of both compounds
Procedure: (§2) Three groups of 5 coupons/samples (n=5) were placed into 2 ml treatments either containing 0.5-1 mg/ml of gentamicin, metronidazole, or combinations thereof (in CAMHB) and incubated for 24 h at 37° C. Importantly, the total antibiotic concentration (mg/ml) was fixed for each sample to enable assessment of compound synergy.
as §1

[1] = tested on: biofilms of a range of Gram-negative and Gram-positive organisms; experiment: CDC biofilm reactor test of metronidazole combinations across species (FIG. 1); format: cell-based; conditions: paired with gentamicin or levofloxacin (S. epidermidis); 0.5-1 mg/ml total, 24 h
Procedure: (§3) For determining the broad-spectrum utility of metronidazole, respective bacterial species were grown into stationary biofilms using a 2- or 3-day species-specific growth protocol in a CDC biofilm reactor on standard 0.5 in polycarbonate coupons. Each reactor holds up to 24 coupons/samples with adherent biofilms. Bacterial bioburden, represented as colony forming units (CFUs), from five reactor samples/coupons (n=5) were quantified by first dispersing the bacterial biofilms in 2 ml of PBS by standardized vortex-sonication technique and serial-dilution plating. Importantly, this quantification technique provides bioburden data with logarithmic sensitivity. […] The gray shaded regions represent standard deviations.
as §2
After the 24 h treatment, the bacteria adhered to coupons were quantified by rinsing the samples very gently in excess PBS followed by vortexing and sonicating to disperse the biofilm in 2 ml PBS and subsequent serial-dilution plating. The bioburden of the adhered bacteria is represented by the blue bars in FIG. 1. […]

K. pneumoniae = experiment: Minimum inhibitory concentration (MIC) assay, planktonic bacteria; format: cell-based, Klebsiella pneumoniae; conditions: for MIC: Klebsiella pneumoniae, for 1:1 combinations MIC is the sum of both compounds
Procedure: as §1

S. aureus = experiment: as above; format: cell-based; conditions: for MIC: Staphylococcus aureus
From the text: Shortcomings of clinical antibiotic susceptibility assays. The antibiotic-susceptibility assays used to guide clinical treatment and prophylaxis rely on actively-dividing planktonic bacteria (Williams, D. L. & Costerton, J. W. J Biomed Mat Res B 100, 1163-1169 (2011)). Among the assays performed by clinical reference laboratories are the minimum inhibitory concentration (MIC), and disk diffusion (Kirby-Bauer) assays. The ubiquity of these assays is owed to the fact that they are high throughput, relatively quick to perform, repeatable, and have short turnaround times. They inform clinicians regarding which antibiotic are applicable for a given infection from a simple site swab, blood, or aspirate sample. […] Thus, when a compound, such as metronidazole performs poorly in an MIC assay, a physician would be thoroughly dissuaded from using it. Likewise, in drug-development, a high MIC value would exclude potentially useful anti-biofilm agents from candidate drug libraries. […] Using orthodox clinical methodology, there would be no basis to administer metronidazole in the treatment of a S. aureus-related infections, despite its exceptional efficacy against bacterial biofilms of the same isolates. The MIC assay fails to provide any information about susceptibility profiles of bacteria that reside in the biofilm phenotype.
as §1

[2] = tested on: S. aureus ATCC 6538 biofilms; experiment: CDC biofilm reactor coupons, 24 h antibiotic treatment, bioburden by serial dilution plating; format: cell-based; conditions: 24 h treatment, FIG. 1 and FIG. 7
Procedure: as §3, §2
After the 24 h treatment, the bacteria adhered to coupons were quantified by rinsing the samples very gently in excess PBS followed by vortexing and sonicating to disperse the biofilm in 2 ml PBS and subsequent serial-dilution plating. The bioburden of the adhered bacteria is represented by the blue bars in FIG. 1. […] Broth bioburden is represented by the red bars in FIG. 1.
Twelve hypoxia activated prodrugs from three categories were tested: nitroimidazoles (same class as metronidazole), nitrofurans, and anti-tumor agents.
To test each compound, the contents of an entire CDC-biofilm reactor (24 coupons/biofilm samples) were used (see FIG. 2 and FIG. 3). […] Using the methods described above, 4 reactor samples/coupons served as reactor controls. The remaining 20 samples/coupons were split into 4 treatment groups of 5 samples each (n=5).
For testing against S. aureus biofilms, the compounds were prepared at a concentration of 1 mM in CAMHB; coupons were treated in 2 ml for 24 h. Compounds were intentionally prepared in units of molarity rather than the more common weight/volume ratios of clinicians.
This choice was made for two reasons.
Two of the treatment groups were the same for each test: one in 1 mM nafcillin (a β-lactam antibiotic) and a second in 1 mM gentamicin. […] For comparison for most compounds 1 mM ranges from ˜0.15-0.5 mg/ml, 1 or 2 Log 2 dilutions below tests in FIG. 1. […] The other compounds were tested at the same concentrations.
Quantification of the post-treatment residual bioburden was performed by dispersing biofilm bacteria into the 2 ml treatments with its constituent bacteria by vortexing, and sonicating. […] The pelleted bacteria were resuspended and measured by the serial dilution plating technique. Thus, the values presented in FIGS. 2, 3 and 4 represent the cumulative change in bioburden from the surface-attached biofilms and bacteria in the treatments.

[3] = tested on: S. aureus ATCC 6538 biofilms; experiment: Hypoxyprobe immunohistochemical staining of pimonidazole adducts in biofilms; format: cell-based; conditions: 0.06 mg/ml pimonidazole, 5 h
From the text: Further, the Hypoxyprobe™ immunohistochemistry kit was used to identify regions of the biofilm that might be hypoxic, and to identify regions with nitro-reductase activity. At the core of the Hypoxyprobe™ kit is the use of the nitroimidazole pimonidazole; it is used to treat, usually animal tissues, but in this case bacterial tissues (biofilms) while in homeostasis prior to fixation, embedment, sectioning, and staining (see structures FIGS. 5E-F). The nitro group on pimonidazole, like that on metronidazole, is reductively activated in hypoxic mammalian tissues by reaction with catalytic nitro-reductase enzymes; it then forms indiscriminate adducts with inter-cellular thiol groups. In the presence of oxygen, the reduced nitro group in pimonidazole (and metronidazole) rapidly reacts with oxygen thereby cycling back to the parent compound. The Hypoxyprobe™ kit contains a primary antibody against these intercellular pimonidazole adducts. Successful immunohistochemical staining of pimonidazole adducts in the biofilm core indicates two important things. First, it would show nitro-reductase activity in the biofilm, and second it would be direct evidence for […] oxygen tension for a nitroimidazole prodrug radical to persist and react with critical cellular components. […]

[4] = anaerobic, read-out: Anaerobic MIC

MIC (E. coli; aerobic, read-out: Aerobic MIC) [µg/mL]	MIC (E. coli; [4]) [µg/mL]	MIC (A. baumannii) [µg/mL]	MIC (P. aeruginosa; aerobic, read-out: Aerobic MIC) [µg/mL]	MIC (P. aeruginosa; [4]) [µg/mL]	MIC (MRSA USA300; aerobic, read-out: Aerobic MIC) [µg/mL]	MIC (MRSA USA300; [4]) [µg/mL]	MIC (S. epidermidis; aerobic, read-out: Aerobic MIC) [µg/mL]	MIC (S. epidermidis; [4]) [µg/mL]	MIC (K. pneumoniae; aerobic, read-out: Aerobic MIC) [µg/mL]	MIC (K. pneumoniae; [4]) [µg/mL]	reduction in MIC, anaerobic versus aerobic (K. pneumoniae; log-phase planktonic bacteria)	MIC (S. aureus; aerobic, for 1:1 combinations MIC is the sum of both compounds, read-out: Aerobic MIC) [µg/mL]	MIC (S. aureus; anaerobic, for 1:1 combinations MIC is the sum of both compounds, read-out: Anaerobic MIC) [µg/mL]	MIC (S. aureus; isolate used in biofilm tests, read-out: MIC against S. aureus) [µg/mL]	Structure (SMILES)	location of dead and viable bacteria by live/dead staining (S. aureus biofilm)	synergistic kill against biofilms [1]	effect against planktonic bacteria as indicated by the MIC (S. aureus; FIG. 7 legend)	antibiofilm activity [2]	location of pimonidazole adducts (nitro-reductase activity, hypoxia) [3]
1250	156	> 2500	> 2500	> 2500	1250	1250	312	625	> 2500	1250	two	2500	> 2500	> 2500	Cc1ncc([N+](=O)[O-])n1CCO [Metronidazole, metronidazole]	an abundance of dead and dying bacteria in the biofilm core contrasted with viable bacteria on the biofilm surface; also recorded: Dead cells (red) resided deep within the biofilm core	strong synergistic kill	little effect against planktonic bacteria	much greater antibiofilm activity compared to traditional antibiotics; also recorded: graded concentration-dependent effect against biofilms; also recorded: killed the otherwise difficult-to-kill persister cells embedded within the biofilm	–
–	–	–	–	–	–	–	–	–	–	–	–	–	–	–	O=[N+]([O-])c1nccn1CC(O)CN1CCCCC1 (centres unmarked) [pimonidazole]	–	–	–	–	adducts banded throughout the deepest parts of the biofilm core
